Laboratory results reported in US20160257930A1, “NEURONAL STEM CELL DIFFERENTIATION” (priority 2013, published 2016).
“Also recorded” adds a separate entry of the source. Where two headings read alike, the source gives them in different places.

Tests used:
Format in all cases: cell-based, human
iPS-derived neurons = experiment: Whole-cell patch-clamp, current clamp: spontaneous action potentials and resting Vm
Description: Ag/AgCl electrodes for patch-clamp were produced by leaving pure silver wire in bleach overnight. An Ag/AgCl pellet (Clark Electromedical Instruments) connected to the patch-clamp headstage was used as the bath (reference) electrode. Thin-walled, filamented, borosilicate glass tubes (World-Precision Instruments, UK) were pulled using a two-stage pipette puller (PP-830, Narishige, Japan) to give patch pipettes with a measured tip resistance of 3-6 MΩ when filled with the internal pipette solution. These pipettes were used to establish whole-cell configuration of the patch clamp technique.
Whole-cell patch-clamp was performed at room temperature. Plated down cells grown on glass coverslips were transferred into a perfusion chamber mounted on the stage of an inverted microscope equipped with phase-contrast optics mounted inside a Faraday cage on an anti-vibration air table (Wentworth Laboratories Ltd., Oxford, UK). Continuous perfusion of the cells with ECS was maintained by a gravity-fed system using a 50 mL disposable syringe as a reservoir. Continuous perfusion was maintained at a rate of approximately 2-4 ml per minute. A gravity-fed rapid solution changer (RSC, RSC-200, Bio-Logic, France) was used to apply various solutions directly to the cells when required allowing for solution changes as fast as 20 ms. Waste solution was removed via vacuum suction through a flame-pulled glass tube connected to a waste Buchner flask with Tygon tubing.
Current-clamp was used to apply current protocols, generated using Axon Laboratory's pClamp 9 software to the patched cell. These were recorded on-line for further analysis using the pClamp software. Offline data review and analysis was performed using Axon Laboratory's Clampfit 9, Microsoft Office Excel and Prism6. Spontaneous action potentials (sAPs): Cells were held in current clamp with zero current injection for recording of resting membrane potentials (Vm) and observation of any spontaneous action potentials. Recordings were made using the ‘Gap free’ protocol immediately after whole-cell access to reduce the effect of the pipette ICS dialysing with the actual cytosolic solution and thus influencing the resting membrane potential. Recordings were made for approx. 60 s for a mean calculation of Vm and to allow for spontaneous action potentials to be recorded.
Data from the current step protocols were analysed in Clampfit and exported to Excel for further processing. The average Vm during a 60 s ‘Gap Free’ recording in current clamp was taken as the resting membrane potential. In cells displaying spontaneous activity, an estimation of the baseline was made from the trace.

hPSC-derived neurons = experiment: Fura-2 Ca2+ imaging; conditions: 15 s; for intracellular Ca2+ response to glutamate receptor agonists: 100 micromolar agonist (NMDA plus 10 micromolar glycine)
Method: A. Exemplar time-course of Fura 2 fluorescence recording of intracellular Ca^2+ concentration in a neuron derived from hPSCs differentiated using the protocol. At each arrow, the cell was exposed sequentially for 15 s to the following solutions: ECS with high potassium chloride concentration (50 mM, isoosmotically replacing NaCl) to evoke a cell depolarization; […] ECS with low sodium chloride concentration (15 mM final, isoosmotically replaced by sodium isethionate) with 300 microM GABA, ECS containing 100 micromolar NMDA plus 10 micromolar glycine; […] The ratiometric Ca^2+ sensitive dye Fura-2-AM (Molecular Probes, Eugene, Oreg., USA) was used for Ca^2+ imaging experiments. This dye was purchased as a dry powder in 50 μg aliquots. Before use, these aliquots were dissolved in 50 μl DMSO (Sigma) by vortex. They were then incubated at 37° C. for 1 h to ensure the dye was fully dissolved. 1 μl of the 1 mg/ml Fura-2-AM stock was added to 250 μl of normal cell growth media and mixed. Cells on glass coverslips were then added to the well and incubated for 30 min at 37° C. and 5% CO2 in a humidified tissue culture incubator. Both stocks and media containing the dye were stored out of direct light to prevent photo-bleaching of the dye. This incubation allowed for Fura-2-AM to be taken up by the cells, cleaved and turned into the active dye Fura-2. Fura-2-loaded cells were placed in a specialised perfusion chamber, designed to allow direct access of the microscope oil-immersion lens with the bottom of the coverslip, mounted upon an Olympus IX71 equipped with a Cairn monochromator-based fluorescence system (Cairn Instruments, Faversham, UK) and were continuously superfused with ECS. Imaging was performed at room temperature. Fura-2 was alternately excited using fluorescence light emitted from the monochromator at 340 and 380 nm. Images at 510 nm were acquired at 0.33 or 0.2 Hz by a slow-scan CCD camera (Kinetic Imaging Ltd, Nottingham, UK). Solutions, agonists and antagonists were locally applied to the cells using the gravity-driven rapid solution changer. Raw data, in the form of emission intensities at 510 nm, during alternate excitation at 340 or 380 nm, were recorded and stored. Following background subtraction, emission ratios (340/380) were calculated off-line using Microsoft Office Excel (Microsoft, Redmond, Wash., US). Where indicated, data were normalised to the first 10 frames to allow further analysis and for comparisons.

neural progenitors = experiment: Cyquant cell proliferation assay; conditions: increasing concentrations; assayed after 3, 6, 9 and 12 days of culture
Method: Cell proliferation in cultures treated with cell cycle and Notch pathway inhibitors were measured using the Cyquant™ Direct Cell Proliferation kit (Invitrogen). Briefly, 1×10^4 neural progenitors were plated per well in black, clear-bottomed 96 well plates (Nunclon) pre-treated with matrigel and cultured in ADF medium supplemented with B27 and small molecule inhibitors such as PD0332991 or DAPT (FIG. 2). Plates were processed according to the manufacturer's instructions and fluorescence Cyquant measurements were taken from triplicate cells on days 3, 6, 9 and 12 of culture using a FLUOstar Optima™ plate reader (BMG Labtech) using FITC (480 nm excitation/535 nm emission) filters in a bottom read fluorescence mode. Each measurement was calibrated by using blank suppression dye as a blank to remove background fluorescence.

[1] = test system: neural progenitor cultures; experiment: Ki67 immunocytochemistry of neural progenitor cultures; conditions: for Ki67 immunoreactivity: 2 μM PD0332991 or 10 μM DAPT, 3 and 7 days after plating
Method: Cells grown on coverslips as described above were fixed with 4% paraformaldehyde at room temperature for 15 minutes. Cells were permeabilised (0.1% Triton X-100 in phosphate buffered saline) for 20 minutes at room temperature, then blocked in blocking solution (2% normal goat serum, 3% bovine serum albumin, 0.1% Triton X-100 in phosphate buffered saline for one hour. Cells were incubated with primary antibodies (rabbit anti-FOXG1, mouse anti-Sox2 (Abcam), mouse anti-ZOI (Abcam), mouse anti-Nestin (Abcam) anti-KI67 (Sigma) and anti-βIII-Tubulin (Sigma) diluted in the same buffer overnight at 4° C. Coverslips were then washed in 0.1% Triton X-100 in phosphate buffered saline 3 times for 5 minutes each and incubated with secondary antibodies (Goat anti-rabbit alexa 594 or Goat anti-mouse 488 secondary antibodies (1:400, Sigma), as appropriate diluted in blocking buffer. Coverslips were washed as above, mounted onto slides using Vectashield with DAPI and imaged using a Olympus BX61 fluorescence microscope.

[2] = 1.8 mM Ca2+ or 300 μM GABA vs control medium (0.6 mM Ca2+), weeks 1 and 2

Molecule: SNX-482
- ACM-evoked hyperpolarization (mean Vm) (iPS-derived neurons): abolished

Molecule: NCCCC(=O)O [GABA, γ-aminobutyric acid]
- intracellular Ca2+ response to GABA in high chloride (hPSC-derived neurons; 300 microM GABA in ECS): all neurons responded to GABA in high chloride
- intracellular Ca2+ response to GABA in low chloride (hPSC-derived neurons; 300 microM GABA, low chloride ECS): few cells responded to GABA in low chloride
- rescue of Vm (iPS-derived neurons): evoked a hyperpolarisation
- mean resting Vm (iPS-derived neurons; [2]): as effective as the increased extracellular Ca^2+
- proportion of cells generating spontaneous activity (iPS-derived neurons; [2]): as effective as the increased extracellular Ca^2+; also recorded: partially mimic the effects of ACM

Molecule: [Ca+2].[Cl-].[Cl-] [Ca^2+, Calcium Chloride]
- mean resting Vm (iPS-derived neurons): significant hyperpolarisation of mean resting Vm; also recorded: hyperpolarized the Vm
- proportion of cells generating spontaneous activity (iPS-derived neurons): enhancement in the proportion of cells generating spontaneous activity; also recorded: increase in spontaneous activity; also recorded: partially mimic the effects of ACM

Molecule: Cc1o[nH]c(=O)c1CC(N)C(=O)O (stereo not drawn) [AMPA]
- intracellular Ca2+ response to glutamate receptor agonists (hPSC-derived neurons): all cells responded similarly

Molecule: CN[C@H](CC(=O)O)C(=O)O [NDMA]
- intracellular Ca2+ response to glutamate receptor agonists (hPSC-derived neurons): all cells responded similarly

Molecule: C[C@H](NC(=O)Cc1cc(F)cc(F)c1)C(=O)N[C@H](C(=O)OC(C)(C)C)c1ccccc1 [DAPT, N-[N-(3,5-Difluorophenacetyl)-L-alanyl]-S-phenylglycine t-butyl ester]
- cell proliferation (relative Cyquant fluorescence, proportional to cell number) (neural progenitors): reduces cell proliferation; also recorded: inhibit neural progenitor proliferation
- Ki67 immunoreactivity [1]: more progressive loss of Ki67 immunostaining
- synchronisation of cell cycle exit and differentiation ([1]; DAPT treatment alone): insufficient to synchronise cell cycle exit and differentiation

Molecule: CC(=O)c1c(C)c2cnc(Nc3ccc(N4CCNCC4)cn3)nc2n(C2CCCC2)c1=O [PD0332991]
- cell proliferation (relative Cyquant fluorescence, proportional to cell number) (neural progenitors): concentration-dependent growth arrest; also recorded: inhibit neural progenitor proliferation
- Ki67 immunoreactivity [1]: complete loss of Ki67 immunopositive cells
